Experimental data as given in patent US3981814A, “Bacteriostatic substituted benzanilide compositions and methods for their use” (Givaudan Corporation, priority 1975, dated 1976).
In brackets after ≈: the same amount, converted by molar mass.

Legend:
[1] = test system: Staphylococcus aureus; assay: In vitro soap bacteriostatic test (agar dilution, spot inoculation, 35°, 48 hours); assay type: cell-based; settings: for MIC: Staphylococcus aureus, without soap, read-out: Compound Activity Without Soap: minimum concentration where S. aureus growth is completely inhibited; for Compound Activity With Soap: minimum concentration where S. aureus growth is completely inhibited: ratio of soap to compound 100:1
Experimental: The antibacterial properties of the compounds prepared in Examples 1 - 14 were tested in soap. The in vitro soap bacteriostatic tests were conducted as follows: The compound is dissolved in a suitable solvent, usually dimethylformamide, to give a 6% solution. One-half ml. aliquot was added to 100 ml. of 3% solution of bar soap stock solution. The solid soap used was a neutral white toilet soap of the "LUX" type. The fatty acids in this soap were of the following composition: This yields an aqueous soap solution containing 30,000 mcg./ml. soap and 300 mcg./ml. compound. The soap/compound ratio in the latter is 100/l. A two-fold serial dilution series is prepared with this solution using sterile distilled water in test tubes such that the final volume in each tube is 2.0 ml. To each test tube is added 28 ml. of molten Dextrose Trypticase Extract Agar (B.B.L.). The tube contents were poured into sterile Petri plates and allowed to harden. The highest final concentration of compound in the serial dilution series is 20 mcg./ml. Plates were spot inoculated with a broth culture of Staphylococcus aureus and incubated at 35° for 48 hours. The lowest concentration completely inhibiting growth of the test organism, in mcg./ml. is recorded as the bacteriostatic concentration of the compound. Tests in the absence of soap are made in a similar manner except that all dilutions are made in solvent. The final concentration in the agar should not be greater than 5%. The results of these tests with the compounds of the present invention as compared with compounds having chemical structures closely related to the compounds of the present invention (designated by the symbol "C") are set forth in the Table. Column 1 contains the data as to the activity of the test solution without soap; column 2 refers to tests in which the ratio of soap to compound is 100:1. […] Growth is observed at the next lower concentration.

[2] = Solubility in alcohol and other solvents; assay type: physicochemical
[3] = in vivo; settings: rat, determined in rats, oral toxicity
Text: For example, 4-chloro-3', 5'-di(trifluoromethyl)-benzanilide has an LD50 of […], determined in rats.

Row | SMILES | MIC [1] | Compound Activity With Soap: minimum concentration where S. aureus growth is completely inhibited [1] | solubility in alcohol solvents [2] | LD50 [3]
1 | O=C(Nc1cc(C(F)(F)F)cc(C(F)(F)F)c1)c1ccc(Br)cc1 [Compound 20, 4-bromo-α,α,α,α',α',α' -hexafluorobenzo-3',5'-xylidide] | 0.312 µg/mL (≈ 0.757 µM) | 0.312 µg/mL | soluble or fairly soluble | 
2 | O=C(Nc1ccc(Br)c(C(F)(F)F)c1)c1ccc(Br)cc1 [Compound 13, 4,4'-dibromo-α,α,α-trifluoro-m-benzotoluidide] | 1.25 µg/mL (≈ 2.95 µM) | 0.312 µg/mL | soluble or fairly soluble | 
3 | O=C(Nc1ccc(F)c(C(F)(F)F)c1)c1ccc(Cl)cc1 [Compound 17, 4-chloro-α,α,α, 4'-tetrafluoro-m-benzotoluidide] | > 20 µg/mL | 1.25 µg/mL |  | 
4 | O=C(Nc1ccc(Cl)c(C(F)(F)F)c1)c1ccc(F)cc1 [Compound C13] | > 20 µg/mL | 5.0 µg/mL |  | 
5 | O=C(Nc1cc(Cl)cc(Cl)c1)c1ccc(Cl)cc1 [Compound C32] | > 20 µg/mL | 10.0 µg/mL |  | 
6 | O=C(Nc1cc(C(F)(F)F)cc(C(F)(F)F)c1)c1cccc(C(F)(F)F)c1 [Compound C28] | > 10 µg/mL | B (Inactive at 10 mcg./ml. (highest concentration tested)) |  | 
7 | O=C(Nc1ccc(Cl)cc1C(F)(F)F)c1ccc(Cl)cc1 [Compound C20] | > 10 µg/mL | B (Inactive at 10 mcg./ml. (highest concentration tested)) |  | 
8 | O=C(Nc1cc(Cl)cc(Cl)c1)c1ccc(Cl)c(Cl)c1 [Compound C36] | > 10 µg/mL | B (Inactive at 10 mcg./ml. (highest concentration tested)) |  | 
9 | O=C(Nc1cccc(C(F)(F)F)c1)c1ccc(Br)cc1 [Compound 3] | > 20 µg/mL | 2.5 µg/mL |  | 
10 | O=C(Nc1cc(C(F)(F)F)ccc1Cl)c1ccc(F)cc1 [Compound C18] | > 10 µg/mL | B (Inactive at 10 mcg./ml. (highest concentration tested)) |  | 
11 | O=C(Nc1ccc(Cl)cc1C(F)(F)F)c1ccccc1Cl [Compound C22] | > 10 µg/mL | B (Inactive at 10 mcg./ml. (highest concentration tested)) |  | 
12 | O=C(Nc1cc(C(F)(F)F)cc(C(F)(F)F)c1)c1ccc(Cl)cc1 [Compound 19, 4-chloro-3',5'-di(trifluoromethyl)-benzanilide] | 0.625 µg/mL (≈ 1.7 µM) | 0.312 µg/mL | soluble or fairly soluble | 6000 mg/kg
13 | O=C(Nc1ccc(Cl)cc1)c1ccc(Cl)c(Cl)c1 [Compound C33] | > 10 µg/mL | B (Inactive at 10 mcg./ml. (highest concentration tested)) |  | 
14 | O=C(Nc1ccc(F)c(C(F)(F)F)c1)c1ccc(Br)cc1 [Compound 18, 4-bromo-α,α,α, 4' -tetrafluoro-m-benzotoluidide] | > 20 µg/mL | 1.25 µg/mL |  | 
15 | O=C(Nc1cc(C(F)(F)F)cc(C(F)(F)F)c1)c1ccc(F)cc1 [Compound C27] | > 20 µg/mL | 10.0 µg/mL |  | 
16 | O=C(Nc1ccc(Cl)c(C(F)(F)F)c1)c1cc(Cl)cc(Cl)c1 [Compound C11] | > 10 µg/mL | B (Inactive at 10 mcg./ml. (highest concentration tested)) |  | 
17 | O=C(Nc1ccc(Cl)c(C(F)(F)F)c1)c1ccc(Cl)cc1 [Compound 8, 4,4'-Dichloro-3'(trifluoromethyl) benzanilide] | 2.5 µg/mL (≈ 7.48 µM) | 0.625 µg/mL |  | 
18 | O=C(Nc1ccc(Br)c(C(F)(F)F)c1)c1ccc(Cl)cc1 [Compound 15, 4'-bromo-4-chloro-α,α,α-trifluoro-m-benzotoluidide] | 0.625 µg/mL (≈ 1.65 µM) | 0.625 µg/mL |  | 
19 | O=C(Nc1cc(C(F)(F)F)ccc1Cl)c1ccc(Cl)cc1 [Compound C15] | > 10 µg/mL | B (Inactive at 10 mcg./ml. (highest concentration tested)) |  | 
20 | O=C(Nc1cc(C(F)(F)F)ccc1Cl)c1ccccc1Cl [Compound C17] | > 10 µg/mL | B (Inactive at 10 mcg./ml. (highest concentration tested)) |  | 
